Data taken from patent US20250186326A1, “Anti-Aging Compositions” (PROGELIFE, priority 2022, published 2025).

Key:
[1] = system: farnesylation of prelamin A; assay: Western blot of prelamin A in human skin fibroblasts (inhibition of farnesylation); assay type: cell-based; details: human skin fibroblasts AG13334, 72 h, Ritonavir 4 μM and Lopinavir 20 μM added
Protocol: (§1) Control Human fibroblast from skin (AG13334) were obtained from Coriell Institute. Cells were maintained in culture according to supplier information at 37° C. in a humidified atmosphere containing 5% CO2.
(§2) Fibroblasts were cultured 72 h without culture-media renewal.
(§3) Pravastatin/Compound II.3a • 14. Pravastatin/Compound II.2 • 15. Pravastatin/Compound I.12 • 16. Pravastatin/Compound II.5
(§4) Ritonavir (4 μM) and Lopinavir (20 μM) were added in all tested conditions to improve the lower limit of detection of prenylated prelamin A in western blots.
(§5) Total fibroblast proteins were extracted after 72 hours treatment in 100 μl of NP40 (Invitrogen) with 1× protease and phosphatase inhibitor cocktail (Life Technologies). Lysates were incubated on ice for 30 minutes, with vortexing at 10-minute intervals. Finally, they were sonicated four times (20 sec each) and then centrifuged at 13000 rpm for 10 minutes at 4° C.
(§6) Protein concentrations were determined with the BCA™ Protein Assay (Life Technologies).
(§7) The following antibodies were used in this study: rabbit monoclonal anti-lamin A/C (ab108922, 1/1000, Abcam, Amsterdam, Netherlands), mouse monoclonal anti-prelamin A (MABT858, Millipore, Molsheim, France), mouse monoclonal anti-HDJ2 (MA5-12748, Thermoscientific, France). Secondary antibodies conjugated with IR-Dye 800CW or 680 were used according to the manufacturer's instructions (926-32213 and 926-68072, 1/5000, Li-COR Biosciences).
(§8) Protein lysates were separated on NuPAGE™ Novex™ 8% Bis-Tris Midi Protein Gels (Life Technologies) and transferred to Immobilon-FL PVDF membranes (Millipore, Molsheim, France). Membranes were blocked for one hour in 1:1 diluted blocking buffer for near fluorescent western blotting (Rockland, Le Perray, France). Blocked membranes were incubated with primary antibody anti-prelamin A overnight at 4° C., following which they were washed and incubated with conjugated secondary antibody for one hour at room temperature. Then, this step was repeated with primary antibodies for HDJ2 and LMNA/C, and conjugated secondary antibodies.
(§9) Bound antibodies were detected and analyzed on an Odyssey imaging system (Li-COR Biosciences, Bad Homburg, Germany) according to the manufacturer's instructions. Revert Protein Stain (Li-COR Biosciences) was used as a total protein loading control.

[2] = system: farnesylation of HDJ2; assay: Western blot of unfarnesylated HDJ2 in human skin fibroblasts (inhibition of farnesylation); assay type: cell-based; details: human skin fibroblasts AG13334, 72 h, Ritonavir 4 μM and Lopinavir 20 μM added
Protocol: as §1, §2, §3, §4, §5, §6, §7, §8, §9

[3] = system: wrinkles/fine lines; details: 3 ppm pal-KTTKS in moisturizer, topical, 12 weeks, split-face; cited from earlier work
[4] = tested compound combined with Alendronate 10 μM
[5] = tested compound combined with Pravastatin 10 μM
[6] = controls: alendronate and/or pravastatin 10 μM without tested compound

| Compound | prelamin A band (western blot, FIG. 1) [1, 4] | unfarnesylated HDJ2 band (western blot, FIG. 1) [2, 4] | prelamin A band (western blot, FIG. 1) [1, 5] | unfarnesylated HDJ2 band (western blot, FIG. 1) [2, 5] | also measured |
| --- | --- | --- | --- | --- | --- |
| COc1ccc([C@@H]2CC(=O)c3c(O)cc(O[C@@H]4O[C@H](CO)[C@@H](O)[C@H](O)[C@H]4O[C@@H]4O[C@@H](C)[C@H](O)[C@@H](O)[C@H]4O)cc3O2)cc1O [Compound I.7a] | Clear bands | Clear bands | – | – | – |
| Oc1cc(O)c2c(c1)O[C@H](c1ccc(O)c(O)c1)[C@@H](O)C2 [Compound II.3a] | – | – | Clear bands | Clear bands | – |
| palmitoyl-lysine-threonine-threonine-lysine-serine [pal-KTTKS] | – | – | – | – | reduction in wrinkles/fine lines vs. placebo control (quantitative technical and expert grader image analysis) [3]: significant improvement |
| C[C@@H]1O[C@@H](O[C@H]2[C@H](Oc3cc(O)c4c(c3)O[C@H](c3ccc(O)cc3)CC4=O)O[C@H](CO)[C@@H](O)[C@@H]2O)[C@H](O)[C@H](O)[C@H]1O [Compound I.8a] | Clear bands | Clear bands | – | – | – |
| O=c1c(O)c(-c2ccc(O)c(O)c2)oc2cc(O)cc(O)c12 [Compound II.5] | – | – | Clear bands | Clear bands | – |
| O=c1cc(-c2ccc(O)cc2)oc2cc(O)cc(O)c12 [Compound II.1] | – | – | Clear bands | Clear bands | – |
| OC[C@H]1O[C@@H](OCCc2ccc(O)cc2)[C@H](O)[C@@H](O)[C@@H]1O [Compound I.12] | – | – | Clear bands | Clear bands | – |
| Oc1ccc(/C=C/c2cc(O)cc(O)c2)cc1 [Compound I.1a] | Clear bands | Clear bands | – | – | – |
| O=c1c2cc(O)c(O)cc2oc2cc(O)c([C@@H]3O[C@H](CO)[C@@H](O)[C@H](O)[C@H]3O)c(O)c12 [Compound I.6a] | Clear bands | Clear bands | – | – | – |
| O=C1c2cccc(O)c2C(=O)c2c(O)cc(CO)cc21 [Compound II.2] | – | – | Clear bands | Clear bands | – |
| NCCCC(O)(P(=O)(O)O)P(=O)(O)O [alendronate, reference compound] | – | – | – | – | prelamin A band (western blot, FIG. 1) [1, 6]: essentially absent; unfarnesylated HDJ2 band (western blot, FIG. 1) [2, 6]: essentially absent |
